Experimental data as given in patent US20100028889A1, “COMPANION DIAGNOSTIC ASSAYS FOR CANCER THERAPY” (ABBOTT LABORATORIES, priority 2006, published 2010).
Read-outs that look alike come from different tables or passages of the source.

Columns and labels:
[1] = test system: leukemia/lymphoma cell lines; assay: categorisation of the leukemia/lymphoma cell line panel by EC50; type: cell-based, human; details: EC50 less than or equal to 4.8 μM
Method: (§1) Cells were treated at 10,000 or 50,000 cells per well for adherent or suspension cells, respectively, in 96-well microtiter plates in the presence of 10% human serum for 48 hours with or without ABT-263, in a humidified chamber with 5% CO2. ABT-263 was synthesized as previously described in Tse, C., Shoemaker, A. R., Adickes, J., et al., “ABT-263: a potent and orally bioavailable Bcl-2 family inhibitor,” Cancer Res 2008; 68: 3421-3428; and Oltersdorf, T., Elmore, S. W., Shoemaker, A. R., et al., “An inhibitor of Bcl-2 family proteins induces regression of solid tumours,” Nature 2005; 435: 677-681, and cell cytotoxicity EC50 values were assessed using CellTiter Glo (Promega, Madison Wis.).
(§2) o divide the training set cell lines into sensitive and resistant categories, a bivariate fit curve was generated for the ABT-263 EC50 versus rank and fitted with a smoothing spline (lambda=1), and the maximum increase in the slope was approximately 5 μM for both sets. […]
(§3) Division of cell lines into sensitive and resistant categories. […] To identify gene expression patterns that can predict sensitivity to ABT-263, as well as genes that might contribute to resistance to treatment, RNA expression profiles for a panel of SCLC cell lines were determined, as well as a panel of leukemia and lymphoma cell lines. […]

[2] = test system: SCLC cell lines; assay: categorisation of the SCLC cell line panel by EC50; type: cell-based, human; details: EC50 less than or equal to 4.1 μM
Method: as §1, §2, §3

[3] = test system: Rec-1; assay: cell cytotoxicity EC50, CellTiter Glo, Mantle Cell Lymphoma cell line, Rec-1 sub-clone batch listed first; type: cell-based, human
Method: (§4) The SCLC and leukemia/lymphoma cell lines listed below were obtained from the American Type Culture Collection (Manassas, Va.), Deutsche Sammlung von Mikroorganismen und Zellkulturen (DSMZ, Braunsweig, Germany), or were the generous gift from Dr. Louis Staudt (National Cancer Institute) and were cultured as described in Tse, C., Shoemaker, A. R., Adickes, J., et al., “ABT-263: a potent and orally bioavailable Bcl-2 family inhibitor,” Cancer Res 2008; 68: 3421-3428; and Tahir, S. K., Yang, X., Anderson, M. G., et al., “Influence of Bcl-2 family members on the cellular response of small-cell lung cancer cell lines to ABT-737,” Cancer Res 2007; 67: 1176-1183.
as §1

[4] = test system: Rec-1; assay: cell cytotoxicity EC50, CellTiter Glo, Mantle Cell Lymphoma cell line, Rec-1 sub-clone batch listed second; type: cell-based, human
Method: as §4, §1

[5] = test system: NCI-H446; assay: cell cytotoxicity EC50, CellTiter Glo, SCLC cell line; type: cell-based, human
Method: as §4, §1

[6] = test system: NCI-H740; assay: as above; type: cell-based, human
Method: as §4, §1

[7] = test system: NCI-H146; assay: as above; type: cell-based, human
Method: as §4, §1

[8] = test system: NCI-211; assay: as above; type: cell-based, human
Method: as §4, §1

[9] = test system: NCI-H69; assay: as above; type: cell-based, human
Method: as §4, §1

[10] = test system: NCI-1417; assay: as above; type: cell-based, human
Method: as §4, §1

[11] = test system: NCI-H209; assay: as above; type: cell-based, human
Method: as §4, §1

[12] = test system: diverse panel of human cancer cell lines; details: cited from earlier work
[13] = Homo sapiens, Rec1, read-out: Response Designation
[14] = Rec1, 10% human serum, 48 hours, read-out: EC50
[15] = 10% human serum, 48 hours, read-out: EC50
[16] = Homo sapiens, read-out: Response Designation

For `CC1(C)CCC(c2ccc(Cl)cc2)=C(CN2CCN(c3ccc(C(=O)NS(=O)(=O)c4ccc(N[C@H](CCN5CCOCC5)CSc5ccccc5)c(S(=O)(=O)C(F)(F)F)c4)cc3)CC2)C1` [ABT-263, N-(4-(4-((2-(4-chlorophenyl)-5,5-dimethyl-1-cyclohex-1-en-1-yl)methyl)piperazin-1-yl)benzoyl)-4-(((1R)-3-(morpholin-4-yl)-1-((phenylsulfanyl)methyl)propyl)amino)-3-((trifluoromethyl)sulfonyl)benzenesulfonamide], the “leukemia/lymphoma cell lines categorized as being sensitive” value [1] was 25 out of 31, the “SCLC cell lines categorized as being sensitive” value [2] was 26 out of 36 and the EC50 [3, 13] was at most 4800 nM. For the same molecule, the EC50 [3, 14] was 34 nM, the EC50 [4, 13] was at most 4800 nM and the EC50 [4, 14] was 698 nM. The EC50 [5, 15] was 4100 nM, the EC50 [5, 16] was at most 4100 nM and the EC50 [6, 15] was over 10000 nM. For the same molecule, the EC50 [6, 16] was over 4100 nM, the EC50 [7, 15] was 110 nM and the EC50 [7, 16] was at most 4100 nM. It also gave an EC50 [8, 15] of 410 nM, an EC50 [8, 16] of at most 4100 nM and an EC50 [9, 15] of 710 nM. The EC50 [9, 16] was at most 4100 nM, the EC50 [10, 15] was 360 nM and the EC50 [10, 16] was at most 4100 nM. For the same molecule, the EC50 [11, 15] was 1150 nM and the EC50 [11, 16] was at most 4100 nM.

In the case of `CN(C)CC[C@H](CSc1ccccc1)Nc1ccc(S(=O)(=O)NC(=O)c2ccc(N3CCN(Cc4ccccc4-c4ccc(Cl)cc4)CC3)cc2)cc1[N+](=O)[O-]` [ABT-737, N-(4-(4-((4′-chloro(1,1′-biphenyl)-2-yl)methyl)piperazin-1-yl)benzoyl)-4-(((1R)-3-(dimethylamino)-1-((phenylsulfanyl)methyl)propyl)amino)-3-nitrobenzenesulfonamide], the “potency across a diverse panel of human cancer cell lines” value [12] is listed as “selective potency against SCLC and lymphoma cell lines”.
